Earlier results as cited in PubChem BioAssay AID1259409 (Chemical Carcinogenesis Research Information System (CCRIS), 2018).

Test system: rodent chemically induced tumor inhibition, incidence and multiplicity
Experiment: CCRIS tumor inhibitor studies
Settings: for outcome: Carcinogen: AZOXYMETHANE [25843-45-2], 1 WK AFTER LAST AZOXYMETHANE INJECTION (STUDY DURATION: 36 WK), Route [Inhibitor]: DIET, Species: RAT, Strain/Sex: F344/MALE, Dose [Carcinogen]: 20 MG/KG 1X A WK FOR 2 WK

For CCCC(=O)OC[C@@H](OC(=O)CCC)[C@@H](OC(=O)CCC)[C@H](Cn1c2nc(=O)[nH]c(=O)c-2nc2cc(C)c(C)cc21)OC(=O)CCC, the “tumour outcome (control, treated, inhibition, significance)” value (Carcinogen: 3-METHYLCHOLANTHRENE, 56-49-5, Dose [Inhibitor]: 0.1% IN 0.05 ML ACETONE 2 HR AFTER APPLICATION OF THE CARCINOGEN THEN 1/2 D (STUDY DURATION: 15 WK), Route [Inhibitor]: DERMAL, Species: MOUSE, Strain/Sex: DDY/FEMALE, Target Tissue: Type of Lesion: SKIN: PAPILLOMA, Dose [Carcinogen]: 0.3% IN 0.05 ML ACETONE 2/WK, Promoter: NONE USED) is listed as 7/50 (14%), 2/49 (4%), 71%, not calculated and the “tumour outcome (control, treated, inhibition, significance)” value (Carcinogen: 3-METHYLCHOLANTHRENE, 56-49-5, Dose [Inhibitor]: 0.1% IN 0.05 ML ACETONE 2 HR AFTER APPLICATION OF THE CARCINOGEN THEN 1/2 D (STUDY DURATION: 15 WK), Route [Inhibitor]: DERMAL, Species: MOUSE, Strain/Sex: DDY/FEMALE, Target Tissue: Type of Lesion: SKIN: SQUAMOUS CELL CARCINOMA, Dose [Carcinogen]: 0.3% IN 0.05 ML ACETONE 2/WK, Promoter: NONE USED) is listed as 34/50 (68%), 20/49 (41%), 40%, p<0.01.
In the case of COc1ccc(-c2cc(=O)c3c(OC)c(OC)c(OC)c(OC)c3o2)cc1OC, the outcome (Dose [Inhibitor]: 0.01% IN DIET FOR 34 WK, Target Tissue: Type of Lesion: LARGE INTESTINE: ADENOCARCINOMA) is given as 67, 55, 18%, not significant, the outcome (Dose [Inhibitor]: 0.01% IN DIET FOR 34 WK, Target Tissue: Type of Lesion: LARGE INTESTINE: ADENOMA) is given as 33, 45, -36% and the outcome (Dose [Inhibitor]: 0.05% IN DIET FOR 34 WK, Target Tissue: Type of Lesion: LARGE INTESTINE: ADENOCARCINOMA) is given as 67, 35, 48%, p<0.05. For the same compound, the outcome (Dose [Inhibitor]: 0.05% IN DIET FOR 34 WK, Target Tissue: Type of Lesion: LARGE INTESTINE: ADENOMA) was 33, 50, -52%.
In the case of C=C(CC[C@@H](C(=O)O)[C@H]1[C@H](O)C[C@@]2(C)C3=C(CC[C@]12C)[C@@]1(C)CC[C@H](OC(C)=O)C(C)(C)[C@@H]1CC3)C(C)C, the “tumour outcome (control, treated, inhibition, significance)” value (Carcinogen: 7,12-DIMETHYLBENZ[A]ANTHRACENE, 57-97-6, Dose [Inhibitor]: 0, 0.2 UMOL 2/WK FOR 19 WK BEGINNING 1 WK POST CARCINOGEN DOSE (STUDY DURATION: 20 WK), Route [Inhibitor]: DERMAL, Species: MOUSE, Strain/Sex: ICR, Target Tissue: Type of Lesion: SKIN: PAPILLOMA, Dose [Carcinogen]: 50 UG ONCE, Promoter: 12-O-TETRADECANOYLPHORBOL-13-ACETATE, 16561-29-8) is given as 73%, 25%, 66%, not calculated and the “tumour outcome (control, treated, inhibition, significance)” value (Carcinogen: 7,12-DIMETHYLBENZ[A]ANTHRACENE, 57-97-6, Dose [Inhibitor]: 0, 0.2 UMOL IN 100 µL ACETONE:DMSO (9:1) 2/WK FOR 20 WK APPLIED 30 MIN PRIOR TO EACH CARCINOGEN DOSE (STUDY DURATION: 20, Route [Inhibitor]: DERMAL, Species: MOUSE, Strain/Sex: ICR/FEMALE, Target Tissue: Type of Lesion: SKIN: PAPILLOMA, Dose [Carcinogen]: 50 UG IN 100 µL ACETONE ONCE, Promoter: 12-O-TETRADECANOYLPHORBOL-13-ACETATE, 16561-29-8) is given as 73%, 27%, 63%, p<0.01.
For O=c1cc(-c2ccccc2)oc2ccccc12, the “tumour outcome (control, treated, inhibition, significance)” value (Carcinogen: 7,12-DIMETHYLBENZ[A]ANTHRACENE, 57-97-6, Dose [Inhibitor]: 0, 45 NMOL IN 0.2 ML ACETONE APPLIED 5 MIN PRIOR TO CARCINOGEN (STUDY DURATION: 21 WK), Route [Inhibitor]: DERMAL, Species: MOUSE, Strain/Sex: SENCAR/FEMALE, Target Tissue: Type of Lesion: SKIN: PAPILLOMA, Dose [Carcinogen]: 10 NMOL IN 0.2 ML ACETONE ONCE, Promoter: 12-O-TETRADECANOYLPHORBOL-13-ACETATE, 16561-29-8) is given as 79%, 93%, -18%, not calculated, the “tumour outcome (control, treated, inhibition, significance)” value (Carcinogen: 7,12-DIMETHYLBENZ[A]ANTHRACENE, 57-97-6, Dose [Inhibitor]: 0, 450 NMOL IN 0.2 ML ACETONE APPLIED 5 MIN PRIOR TO CARCINOGEN (STUDY DURATION: 21 WK), Route [Inhibitor]: DERMAL, Species: MOUSE, Strain/Sex: SENCAR/FEMALE, Target Tissue: Type of Lesion: SKIN: PAPILLOMA, Dose [Carcinogen]: 10 NMOL IN 0.2 ML ACETONE ONCE, Promoter: 12-O-TETRADECANOYLPHORBOL-13-ACETATE, 16561-29-8) is given as 79%, 100%, -27%, not calculated and the “tumour outcome (control, treated, inhibition, significance)” value (Carcinogen: 7,12-DIMETHYLBENZ[A]ANTHRACENE, 57-97-6, Dose [Inhibitor]: 0, 4500 NMOL IN 0.2 ML ACETONE APPLIED 5 MIN PRIOR TO CARCINOGEN (STUDY DURATION: 21 WK), Route [Inhibitor]: DERMAL, Species: MOUSE, Strain/Sex: SENCAR/FEMALE, Target Tissue: Type of Lesion: SKIN: PAPILLOMA, Dose [Carcinogen]: 10 NMOL IN 0.2 ML ACETONE ONCE, Promoter: 12-O-TETRADECANOYLPHORBOL-13-ACETATE, 16561-29-8) is given as 79%, 80%, -1%, not calculated. The “tumour outcome (control, treated, inhibition, significance)” value (Carcinogen: 7,14-DIMETHYLBENZO[A,H]ANTHRACENE, 35335-07-0, Dose [Inhibitor]: 0, 45 NMOL IN 0.2 ML ACETONE APPLIED 5 MIN PRIOR TO CARCINOGEN (STUDY DURATION: 21 WK), Route [Inhibitor]: DERMAL, Species: MOUSE, Strain/Sex: SENCAR/FEMALE, Target Tissue: Type of Lesion: SKIN: PAPILLOMA, Dose [Carcinogen]: 47.5 NMOL IN 0.2 ML ACETONE ONCE, Promoter: 12-O-TETRADECANOYLPHORBOL-13-ACETATE, 16561-29-8) was 97%, 97%, 0%, the “tumour outcome (control, treated, inhibition, significance)” value (Carcinogen: 7,14-DIMETHYLBENZO[A,H]ANTHRACENE, 35335-07-0, Dose [Inhibitor]: 0, 450 NMOL IN 0.2 ML ACETONE APPLIED 5 MIN PRIOR TO CARCINOGEN (STUDY DURATION: 21 WK), Route [Inhibitor]: DERMAL, Species: MOUSE, Strain/Sex: SENCAR/FEMALE, Target Tissue: Type of Lesion: SKIN: PAPILLOMA, Dose [Carcinogen]: 47.5 NMOL IN 0.2 ML ACETONE ONCE, Promoter: 12-O-TETRADECANOYLPHORBOL-13-ACETATE, 16561-29-8) was 97%, 97%, 0% and the “tumour outcome (control, treated, inhibition, significance)” value (Carcinogen: 7,14-DIMETHYLBENZO[A,H]ANTHRACENE, 35335-07-0, Dose [Inhibitor]: 0, 4500 NMOL IN 0.2 ML ACETONE APPLIED 5 MIN PRIOR TO CARCINOGEN (STUDY DURATION: 21 WK), Route [Inhibitor]: DERMAL, Species: MOUSE, Strain/Sex: SENCAR/FEMALE, Target Tissue: Type of Lesion: SKIN: PAPILLOMA, Dose [Carcinogen]: 47.5 NMOL IN 0.2 ML ACETONE ONCE, Promoter: 12-O-TETRADECANOYLPHORBOL-13-ACETATE, 16561-29-8) was 97%, 68%, 30%, not calculated. For the same compound, the “tumour outcome (control, treated, inhibition, significance)” value (Carcinogen: DIBENZO[A,H]ANTHRACENE, 53-70-3, Dose [Inhibitor]: 0, 45 NMOL IN 0.2 ML ACETONE APPLIED 5 MIN PRIOR TO CARCINOGEN (STUDY DURATION: 21 WK), Route [Inhibitor]: DERMAL, Species: MOUSE, Strain/Sex: SENCAR/FEMALE, Target Tissue: Type of Lesion: SKIN: PAPILLOMA, Dose [Carcinogen]: 200 NMOL IN 0.2 ML ACETONE ONCE, Promoter: 12-O-TETRADECANOYLPHORBOL-13-ACETATE, 16561-29-8) was 100%, 93%, 7%, not calculated, the “tumour outcome (control, treated, inhibition, significance)” value (Carcinogen: DIBENZO[A,H]ANTHRACENE, 53-70-3, Dose [Inhibitor]: 0, 450 NMOL IN 0.2 ML ACETONE APPLIED 5 MIN PRIOR TO CARCINOGEN (STUDY DURATION: 21 WK), Route [Inhibitor]: DERMAL, Species: MOUSE, Strain/Sex: SENCAR/FEMALE, Target Tissue: Type of Lesion: SKIN: PAPILLOMA, Dose [Carcinogen]: 200 NMOL IN 0.2 ML ACETONE ONCE, Promoter: 12-O-TETRADECANOYLPHORBOL-13-ACETATE, 16561-29-8) was 100%, 86%, 14%, not calculated and the “tumour outcome (control, treated, inhibition, significance)” value (Carcinogen: DIBENZO[A,H]ANTHRACENE, 53-70-3, Dose [Inhibitor]: 0, 4500 NMOL IN 0.2 ML ACETONE APPLIED 5 MIN PRIOR TO CARCINOGEN (STUDY DURATION: 21 WK), Route [Inhibitor]: DERMAL, Species: MOUSE, Strain/Sex: SENCAR/FEMALE, Target Tissue: Type of Lesion: SKIN: PAPILLOMA, Dose [Carcinogen]: 200 NMOL IN 0.2 ML ACETONE ONCE, Promoter: 12-O-TETRADECANOYLPHORBOL-13-ACETATE, 16561-29-8) was 100%, 93%, 7%, not calculated. For the same compound, the “tumour outcome (control, treated, inhibition, significance)” value (Dose [Inhibitor]: 0, 1000 PPM IN DIET BEGINNING 8 WK PRIOR TO CARCINOGEN AND CONTINUING FOR 6 WK POST CARCINOGEN (STUDY DURATION: 68 WK), Route [Inhibitor]: ORAL, Species: FISH, Strain/Sex: RAINBOW TROUT, Target Tissue: Type of Lesion: LIVER: HEPATOCELLULAR CARCINOMA, Dose [Carcinogen]: 20 PPB IN DIET FOR 2 WK, Promoter: NONE USED) was 43/118 (36%), 45/120 (38%), -5%, not significant.
In the case of C=C(NC(=O)Cc1ccc(OS(=O)(=O)O)cc1)C(=O)O, the “tumour outcome (control, treated, inhibition, significance)” value (Carcinogen: 7,12-DIMETHYLBENZ[A]ANTHRACENE, 57-97-6, Dose [Inhibitor]: 0, 1 MMOL 15 MINUTES AFTER EACH PROMOTER TREATMENT BEGINNING 2 WK POST CARCINOGEN (STUDY DURATION: 42 WK), Route [Inhibitor]: DERMAL, Species: MOUSE, Strain/Sex: SENCAR/FEMALE, Target Tissue: Type of Lesion: SKIN: SQUAMOUS CELL CARCINOMA, Dose [Carcinogen]: 10 NMOL IN 0.2 ML ACETONE ONCE) is listed as 48%, 25%, 48%, not calculated.
